ChEMBL document CHEMBL4622876, “Total Synthesis and Antimalarial Activity of Dominicin, a Cyclic Octapeptide from a Marine Sponge” (J Nat Prod, 2020)
Where a SMILES comes first, the peptide text is derived from it.

Tests used:
Plasmodium falciparum [1] = assay: Antiplasmodial activity against Plasmodium falciparum; format: functional, organism-based
Plasmodium falciparum [2] = assay: Antiplasmodial activity against D-sorbitol synchronized ring stage chloroquine/mefloquine/pyrimethamine-resistant Plasmodium falciparum Dd2 after 72 hrs; format: functional, organism-based; conditions: Dd2, 72 h
Erythrocyte = assay: Hemolytic activity in human RBC assessed as release of hemoglobin at 0.78 nM to 26 uM incubated for 72 hrs; format: ADME, cell-based; conditions: 0.00078 µM
Plasmodium falciparum [3] = assay: Antiplasmodial activity against D-sorbitol synchronized ring stage Plasmodium falciparum 3D7 after 72 hrs; format: functional, organism-based; conditions: 3D7, 72 h

| IC50 (Plasmodium falciparum [1]) | Structure (SMILES) | IC50 (Plasmodium falciparum [2]) | Activity (Erythrocyte) | IC50 (Plasmodium falciparum [3]) |
| --- | --- | --- | --- | --- |
| 2200 nM | C[C@@H](O)[C@@H]1NC(=O)CNC(=O)[C@H](Cc2ccccc2)NC(=O)[C@H](Cc2ccccc2)NC(=O)CNC(=O)[C@H](Cc2ccccc2)NC(=O)[C@H](Cc2ccccc2)NC1=O (cyclo(FFGFFGT)) |  |  |  |
|  | CC[C@H](C)[C@@H]1NC(=O)[C@H]([C@@H](C)CC)NC(=O)[C@H]([C@@H](C)CC)NC(=O)[C@@H]2CCCN2C(=O)[C@H]([C@@H](C)O)NC(=O)[C@@H]2CCCN2C(=O)[C@@H]2CCCN2C(=O)[C@H](CC(C)C)NC1=O (cyclo(IIILPPTP)) | 1800 nM | Non-Toxic | 3.6 µM |
